The values that follow come from publication PMC8911752, “The Synthesis and Initial Evaluation of MerTK Targeted PET Agents” (Molecules, 2022).

As a reminder, the IC50 is the concentration at which inhibition is half-maximal. A low value points to inhibition by little substance.

In one series the target is T1, Flt3 (Homo sapiens, UniProt P36888).
T1 sequence (P36888 27-993): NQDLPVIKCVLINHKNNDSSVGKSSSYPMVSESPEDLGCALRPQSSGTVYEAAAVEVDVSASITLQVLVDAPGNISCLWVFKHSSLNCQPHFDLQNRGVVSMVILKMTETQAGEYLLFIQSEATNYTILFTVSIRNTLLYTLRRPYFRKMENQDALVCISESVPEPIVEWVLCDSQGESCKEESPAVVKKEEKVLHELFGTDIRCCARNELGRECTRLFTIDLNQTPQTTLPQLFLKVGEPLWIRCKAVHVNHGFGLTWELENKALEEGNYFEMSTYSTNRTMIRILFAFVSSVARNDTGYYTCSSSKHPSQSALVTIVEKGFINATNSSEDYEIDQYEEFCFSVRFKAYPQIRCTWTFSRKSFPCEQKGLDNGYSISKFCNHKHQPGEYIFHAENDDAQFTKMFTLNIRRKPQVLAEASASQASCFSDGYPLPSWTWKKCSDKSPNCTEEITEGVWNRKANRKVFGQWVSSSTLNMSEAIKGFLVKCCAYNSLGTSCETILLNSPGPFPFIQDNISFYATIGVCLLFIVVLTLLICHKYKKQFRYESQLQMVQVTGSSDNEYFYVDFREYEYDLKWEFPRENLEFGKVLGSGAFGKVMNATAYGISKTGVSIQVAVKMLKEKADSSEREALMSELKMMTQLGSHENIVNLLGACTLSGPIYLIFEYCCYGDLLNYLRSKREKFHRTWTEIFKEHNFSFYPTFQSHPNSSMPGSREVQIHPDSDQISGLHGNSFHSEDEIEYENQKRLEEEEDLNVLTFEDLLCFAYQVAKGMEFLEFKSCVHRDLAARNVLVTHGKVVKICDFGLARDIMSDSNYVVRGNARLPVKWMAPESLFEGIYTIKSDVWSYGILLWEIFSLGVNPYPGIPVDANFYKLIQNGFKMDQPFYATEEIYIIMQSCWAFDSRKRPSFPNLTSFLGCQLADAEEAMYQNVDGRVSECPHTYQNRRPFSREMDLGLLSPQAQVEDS
Kind of series: Microcapillary electrophoresis (MCE) kinase assay, Flt3. The format is biochemical. To be noted: ATP at Km, mean of two or more independent assays. How it is done:
The inhibitory activities of standards towards MerTK, Axl, Tyro3 and Flt3 were determined in our in-house microcapillary electrophoresis (MCE) assays.
Microcapillary Electrophoresis (MCE) Assays were performed with literature method. […] All reactions were terminated by addition of 20 µL of 70 mM EDTA. After an 180 min incubation, phosphorylated and unphosphorylated substrate peptides (Table 2) were separated in buffer supplemented with 1 x CR-8 on a LabChip EZ Reader equipped with a 12-sipper chip. Data were analyzed using EZ Reader software.

The subject of series [1] is B16F10 tumor-bearing mice. Kind of series: PET imaging in B16F10 tumor-bearing mice. The note with it: 68Ga-labeled, initial pilot study in mice. The format is in vivo.
Series [2] relates to B16F10 tumor-bearing mice. Kind of series: PET imaging in B16F10 tumor-bearing mice. The format is in vivo. The note with it: initial PET study, 18F-labeled agents. Here is the method:
Evaluation of the PET agent [^18F]-MerTK-6 was performed on B16F10 tumor-bearing mice. At 30 min post-injection (p.i), the uptake in tumor, liver, kidney, and muscle was 4.65 ± 1.25, 14.79 ± 0.99, 10.42 ± 1.01, and 2.51 ± 0.48%ID/g, respectively. The uptake at 2 h p.i. was 4.79 ± 0.24, 9.72 ± 1.56, 5.34 ± 1.25, and 1.55 ± 0.23%ID/g, respectively. Overall, the tumor uptake was maintained at ~5%ID/g and the tumor to muscle contrast increased to 3.09 at 2 h p.i, compared with 1.86 at 0.5 h p.i.
All animal studies were reviewed and approved by The University of North Carolina at Chapel Hill Institutional Animal Care and Use Committee. The B16F10 tumor cell was obtained from the LCCC tissue culture facility (the University of North Carolina at Chapel Hill, Chapel Hill, NC, USA). The B16F10 tumor-bearing […] mouse model was prepared as described previously. Briefly, B16/F10 cells were subcutaneously injected on the right flank of C57BL/6 female mice (Jackson Laboratory). The tumor volume was measured daily. When the tumor size reached 100 mm^3, the mice were used for PET imaging studies.
B16F10 tumor-bearing mice (n = 3/group) were intravenously injected via the tail vein with tracers. At 30 min and 120 min post-injection, a 10-min static emission scan was acquired with a SuperArgus small-animal PET/CT scanner. The regions of interests (ROIs) were drawn over the tumor and other organs and calculated as %ID/g. The mean uptake and standard deviation were calculated.

In turn, `C[C@H](Nc1ncc2c(C3CCN(C(=S)Nc4ccc(CC5CN(CC(=O)O)CCN(CC(=O)O)CCN5CC(=O)O)cc4)CC3)cn([C@H]3CC[C@H](O)CC3)c2n1)c1ccccc1` (stereo partly drawn) [MerTK-4] gave an IC50 against Flt3 greater than 30 µM. Further, the tumor uptakes in series [1] was less than 1 %ID/g.
With `C[C@H](Nc1ncc2c(C3CCN(C)CC3)cn([C@H]3CC[C@H](O)CC3)c2n1)c1ccccc1` [MerTK-2], the half-maximal inhibitory concentration (IC50) against Flt3 is greater than 30 µM.
`CCC[C@H](C)Nc1ncc2c(C3CCN(CCF)CC3)cn([C@H]3CC[C@H](O)CC3)c2n1` [MerTK-5] came in with an IC50 against Flt3 of 1 µM.
`C[C@H](Nc1ncc2c(C3CCN(CCF)CC3)cn([C@H]3CC[C@H](O)CC3)c2n1)c1ccccc1` [MerTK-6] came in with an IC50 on Flt3 of 5.5 µM. The “tumor uptake and contrast compared with MerTK-5” value in series [2] is “more prominent tumor uptake and contrast”.
